Experiments:
[1] = Bleach Stability Test (triangle test after storage with perborate and TAED); type: physicochemical; details: number of 20 assessors correctly choosing odd one out; 0.2% material in powder with perborate and TAED, 45° C. one week; up to 9 = bleach-stable, 10 or more = unstable
Protocol: (i) dosing a perfume material into the standard unperfumed washing powder and incubating the dosed powder at 20° C. in a sealed container for seven days;
(ii) dividing the dosed powder into two portions and adding to each portion sodium perborate tetrahydrate together with either TAED granules or sodium sulphate (to act as an inert filler in place of TAED) to provide test and control formulations having the following constitution: […]
(iii) incubating both test and control powders in sealed containers at 45° C. for a further seven days; and
(iv) assessing samples of the test and control powders according to a standard triangle test as described in "Manual on Sensory Testing Methods" published by the American Society for Testing and Materials (1969), using a panel of 20 assessors, who are instructed to judge by smell which of the three powder samples is the odd one out, the perfume material being designated a bleach-stable deodorant perfume component when the odd one out is correctly identified by no more than 9 of the 20 assessors.
The stability of perfume materials to the presence of a bleaching composition is assessed according to a standard test which involves the exposure of these individual perfume materials to a mixture of sodium perborate tetrahydrate and TAED in a detergent fabric washing powder under standard conditions of storage.
In order to perform this test, a detergent powder base is prepared according to a standard blowing technique to form a granulated product. The formulation of the detergent powder base is as follows: […]
A selected perfume material is then incorporated by mixing with a portion of the blown base powder to a final concentration of 0.2% by weight of the finished product, and stored at 20° C. in a sealed container for one week with occasional mixing to ensure an even concentration of the perfume material throughout the powder. The sample is the split into two portions and further ingredients mixed in to provide the following test and control formulations:
100 g samples of each control and test batch of powder containing a selected perfume material are then sealed in containers and stored at 45° C. for one week. Each sample is then assessed in a forced choice triangle test according to the following procedure:
Three samples of powder, either one from the test batch and two from the control batch, or two from the test batch and one from the control batch are then assessed by a panel of 20 assessors who are asked to select by sniffing which of the three samples is the "odd one out".
The fragrance of samples containing bleach-stable perfume materials should be unchanged following incubation in the presence of the perborate and TAED, and accordingly there is a 1 in 3 chance of an assessor selecting correctly the control or test sample as the "odd one out".
The Triangle Test procedure is described and discussed in "Manual on Sensory Testing Methods" published by the American Society for Testing and Materials (1969).
The results of each Triangle Test are calculated as follows: […]
If 10 or more of the 20 assessors choose correctly the "odd one out" of the three samples, then the perfume material under test is judged to be unstable in the presence of bleach. If, however, up to 9 of the 20 accessors choose correctly the "odd one out" of 3 samples, then the perfume material under test is judged to be stable in the presence of bleach.

lipoxidase (EC1.13.1.13) = molecular target: T1, lipoxidase (EC1.13.1.13) (Glycine max, UniProt P08170); assay: Lipoxidase Test (inhibition of oxidation of linoleic acid by lipoxidase); type: biochemical; details: test substrate made with 0.5% by weight solution of material in ethanol; for LIC value (Lipoxidase-Inhibiting Capacity): % inhibition, borate buffer pH 9.0, 234 nm; for inhibition at 0.5 % strength: borate buffer pH 9.0, 234 nm, read-out: LIC value (Lipoxidase-Inhibiting Capacity)
T1 sequence (P08170 1-839): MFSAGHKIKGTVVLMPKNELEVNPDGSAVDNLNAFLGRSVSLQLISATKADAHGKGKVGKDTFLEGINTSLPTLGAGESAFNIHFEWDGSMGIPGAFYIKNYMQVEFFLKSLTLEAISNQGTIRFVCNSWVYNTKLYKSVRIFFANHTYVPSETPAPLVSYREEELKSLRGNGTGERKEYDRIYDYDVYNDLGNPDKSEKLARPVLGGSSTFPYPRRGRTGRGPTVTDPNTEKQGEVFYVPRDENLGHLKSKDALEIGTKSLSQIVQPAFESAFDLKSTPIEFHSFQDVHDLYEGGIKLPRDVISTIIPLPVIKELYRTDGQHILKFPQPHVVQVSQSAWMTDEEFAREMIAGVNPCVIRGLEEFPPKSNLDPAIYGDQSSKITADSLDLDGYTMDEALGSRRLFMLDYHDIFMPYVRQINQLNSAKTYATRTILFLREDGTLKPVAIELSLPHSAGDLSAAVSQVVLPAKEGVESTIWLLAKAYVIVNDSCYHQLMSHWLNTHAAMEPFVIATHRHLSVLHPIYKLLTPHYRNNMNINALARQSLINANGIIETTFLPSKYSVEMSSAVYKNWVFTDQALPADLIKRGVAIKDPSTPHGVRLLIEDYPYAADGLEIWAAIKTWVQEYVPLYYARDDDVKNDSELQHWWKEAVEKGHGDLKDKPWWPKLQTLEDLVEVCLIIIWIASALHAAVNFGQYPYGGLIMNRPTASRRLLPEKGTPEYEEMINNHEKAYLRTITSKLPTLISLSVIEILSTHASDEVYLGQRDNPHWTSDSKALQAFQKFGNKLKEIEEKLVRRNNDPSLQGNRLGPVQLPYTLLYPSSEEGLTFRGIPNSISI

[2] = Morpholine Test (depression of partial vapour pressure of morpholine, Raoult Variance Ratio); details: morpholine 0.25 g + material 1 g, 37° C., headspace GC

Compound	BST panel score [1]	LIC value (Lipoxidase-Inhibiting Capacity) (lipoxidase (EC1.13.1.13))	RVR value (Raoult Variance Ratio) [2]	inhibition at 0.5 % strength (lipoxidase (EC1.13.1.13))
i-Nonyl acetate	4	50%	0.83	–
CCCCCCOC(=O)c1ccccc1O [Hexyl salicylate]	5	–	–	100%
CCC(C)(C)C1CCC(=O)CC1 [p-t-Amyl cyclohexanone]	8	–	1.10	–
CCCCCCC(CCOC(C)=O)OC(C)=O (stereo not drawn) [Nonanediol-1,3-diacetate]	8	–	1.17	–
Tetrahydromuguol	8	24%	1.23	–
CCCCCC1CCC(=O)O1 (stereo not drawn) [Nonanolide-1,4]	5	–	0.87	–
COC(=O)c1ccccc1N [Methyl anthranilate]	6	–	1.20	69%
CC(=O)OC1CCC(C(C)(C)C)CC1 (stereo not drawn) [p-t-Butyl cyclohexyl acetate]	10	–	0.98	–
CC(C=O)Cc1ccc(C(C)(C)C)cc1 (stereo not drawn) [p-t-Butyl-α-methyl hydrocinnamic aldehyde]	13	–	–	–
i-Nonyl formate	8	19%	1.49	–
CCOC(=O)c1ccccc1O [Ethyl salicylate]	7	–	1.19	–
CCCCCCCC1CCCC1=O (stereo not drawn) [2-n-Heptylcyclo-pentanone]	7	–	1.05	–
CC(=O)C(C)=CC1C(C)=CCCC1(C)C (stereo not drawn) [α-iso-Methyl ionone]	7	–	–	–
CCOc1cc(C=O)ccc1O [Ethyl vanillin]	12	–	1.43	–
CC(=O)OC1CCCCC1C(C)(C)C (stereo not drawn) [o-t-Butylcyclohexyl acetate]	8	–	1.08	–
CC(=O)c1ccc2ccccc2c1 [β-Methyl naphthyl ketone]	3	–	0.96	–
Cc1ccc(C(C)C)cc1O [Carvacrol]	6	–	1.43	–
C/C=C\c1ccc(O)c(OC)c1 [iso-Eugenol]	4	–	1.48	–
OCCc1ccccc1 [Phenylethyl alcohol]	10	–	1.24	–
Hydroxymethyl isopropyl cyclopentane	8	60%	1.23	–
OC/C=C/c1ccccc1 [Cinnamic alcohol]	9	–	1.28	–
O=C(Cc1ccccc1)OCCc1ccccc1 [Phenylethyl phenyl acetate]	7	–	1.22	–
CC(C)CCOC(=O)c1ccccc1O [iso-Amyl salicylate]	9	–	1.24	–
CC1COCc2cc3c(cc21)C(C)(C)C(C)C3(C)C (stereo not drawn) [1,3,4,6,7,8-Hexahydro-4,6,6,7,8,8-hexamethyl cyclopenta-α-2-benzopyran]	5	–	–	–
CCOC(=O)c1ccccc1C(=O)OCC [Diethyl phthalate]	4	–	1.20	–
CC1(C)CCCC2(C)C1CCC1(C)OCCC12 (stereo not drawn) [3a-Methyl-dodecahydro-6,6,9a-trimethylnaphtho-2(2,1-b)furan]	5	–	1.30	–
Dimyrcetol	9	16%	1.22	–
O=c1ccc2ccccc2o1 [Coumarin]	10	–	1.22	–
O=C(OCc1ccccc1)c1ccccc1O [Benzyl salicylate]	17	–	1.58	–
CC(C)Cc1ccc2ncccc2c1 [iso-Butyl quinoline]	5	–	1.10	–
